Reference: patent US7626075B2, “Growth of foreign cells in fetal animals facilitated by conditional and selective destruction of native host cells” (priority 2002, dated 2009)
Like-named read-outs stand apart in the source and are kept apart here.

Columns and labels:
pancreatic islets [1] = conditions: injected into fetal animals; cited from earlier work
pancreatic islets [2] = conditions: injected into fetal animals; cited from earlier work; remark: listed apart in the source
[3] = test system: Huh-7 cells stably transfected with AlbxTK; experiment: Gancyclovir sensitivity of Huh-7 cells transfected with AlbxTK, propidium iodine FACS; type: cell-based, human
Experimental: Mouse and human liver cell lines were transfected with constructs containing delta thymidine kinase under the control of either a porcine albumin or α-fetoprotein (AFP) promoter. The mouse cell line (TIB73) is a line of mature hepatocytes in which albumin is expressed. The human cell line (Huh-7) is a line of hepatocellular carcinoma cells that express predominantly AFP. The transfected cells were tested for thymidine kinase by Western blot. To assess the function of mutated thymidine kinase, Huh-7 cells were stably transfected with AlbxTK. Transfected cells were selected using 200 μg/ml Zeocin. Transfected cells as well as untransfected cells were plated in duplicate in 24-well plates at a 40 percent confluence ratio. Gancyclovir was added to the cells in the culture media at different concentrations (4 μM, 8 μM, and 16 μM. […]

[4] = test system: untransfected Huh-7 cells; experiment: Gancyclovir effect on untransfected cells, propidium iodine FACS; type: cell-based, human; conditions: gancyclovir 4, 8, 16 μM in culture media
Experimental: To assess the function of mutated thymidine kinase, Huh-7 cells were stably transfected with AlbxTK. Transfected cells were selected using 200 μg/ml Zeocin. Transfected cells as well as untransfected cells were plated in duplicate in 24-well plates at a 40 percent confluence ratio. Gancyclovir was added to the cells in the culture media at different concentrations (4 μM, 8 μM, and 16 μM. After 5 days, the cells were trypsinized, washed twice in PBS, and stained with propidium iodine for FACS analysis.

[5] = test system: fetal mice heterozygous for thymidine kinase under the albumin promoter; conditions: for fetal hepatocyte injury (histology): 14 days gestation
Source text: The suicide gene product preferably is expressed in the appropriate tissue of the fetal host mammal at a level sufficient to be sensitive to a prodrug. The optimal dose of a prodrug depends on the prodrug, the particular suicide gene, the level of suicide gene expression in the target cells, zygosity of the fetal mammal, route of administration, and placental transport. Optimal doses can readily be determined by administering increasing doses of the prodrug to the pregnant mammal, assessing the effect on the target cells using standard pathology methods and assessing the effect on fetal survival using ultrasound and pathology techniques. The optimal dose would produce significant cell injury (>20%) with a minimum of fetal deaths (<15%).
Transgenic mice were produced with the FVB strain containing the mutated thymidine kinase transgene under the albumin promoter. […] These males were bred with non-transgenic FVB mice. At 14 days gestation, gancyclovir (0 to 100 mg/kg body weight) was injected intravenously into the pregnant mice. Tissues from the mothers and fetuses were analyzed by histology.

[6] = test system: non-transgenic FVB mice (mothers); experiment: Gancyclovir i.v. to pregnant non-transgenic mice, histology of the mothers; type: in vivo, mouse; conditions: any dose (0 to 100 mg/kg i.v.)
Source text: These males were bred with non-transgenic FVB mice.

fetal pig liver = experiment: Engraftment of human hepatocytes in fetal pigs after gancyclovir to the sow and human cord blood cell infusion; type: in vivo; conditions: gancyclovir 100 mg/kg i.v. to sow
Experimental: A non-transgenic sow is bred with a boar that is hemizygous for a mutated thymidine kinase transgene under the control of an albumin promoter. Pregnancy is confirmed with ultrasound and gancyclovir (100 mg/kg, i.v.) is administered at 40 days gestation. A laparotomy is performed at 45 days. Each pig is infused with 10×10^6 human cord blood cells. The piglets are delivered at term by Caesarean section. Blood is drawn from each fetal pig and analyzed for the presence of the suicide transgene using PCR. Serum is tested for the presence of human liver proteins, including albumin, α1-antitrypsin, and serum amyloid A. Sections of liver are frozen and stained for human albumin.

[7] = test system: mice expressing thymidine kinase under the albumin promoter; experiment: Engraftment of human hepatocytes in transgenic mice given gancyclovir after birth; type: in vivo, mouse; conditions: 50 mg/kg on days 1 and 3 at 14 days of age; sacrificed thirty days later
Experimental: Transgenic mice are produced that express the thymidine kinase gene under the albumin promoter. The male mice are bred with wild type females. Human hepatocytes (2×10^6 per fetal mouse) are injected at 17 days gestation, just prior to delivery. At 14 days of age, the mice are injected with gancyclovir (50 mg/kg) on days 1 and 3 or with the vehicle. Thirty days later, the mice are sacrificed.

[8] = test system: hepatocytes of adult transgenic mice; conditions: administered to adult transgenic mice; cited from earlier work

CN(N=O)C(=O)N[C@H]1C(O)O[C@H](CO)[C@@H](O)[C@@H]1O (mixture of isomers) [streptozotocin]
effect on fetal pancreatic islets (pancreatic islets [1]): destroys the pancreatic islets
effect on maternal islets (pancreatic islets [1]): relatively little effect
effect on fetal pancreatic islets (pancreatic islets [2]): destroys the pancreatic islets
effect on maternal islets (pancreatic islets [2]): relatively little effect

Nc1nc(O)c2ncn(COC(CO)CO)c2n1 [gancyclovir]
cell death ([3]; 8 or 16 μM gancyclovir, 5 days): significantly more cell death
cell killing ([3]; 7 days): entirely killed
effect on non-transfected cells [4]: only a minimal effect
fetal survival ([5]; 25 mg/kg intravenous injection to pregnant mouse): the fetal pups survived
fetal survival ([5]; 50 mg/kg and higher, to pregnant mouse): the fetal mice died
fetal hepatocyte injury (histology) ([5]; 50 mg/kg i.v. to pregnant mouse): massive hepatic necrosis
fetal hepatocyte injury (histology) ([5]; 100 mg/kg i.v. to pregnant mouse): massive hepatic necrosis
injury to the non-liver tissues in the fetal mice ([5]; mouse, in vivo): no observable injury
placental transfer ([5]; mouse, in vivo, iv): crosses the placental barrier
injury to the hepatocytes of the mother [6]: no observable injury
levels of human albumin, α1-antitrypsin inhibitor and serum amyloid A (fetal pig liver; piglets without thymidine kinase transgene): less than 1 % of levels seen in humans
liver engrafted with human hepatocytes (fetal pig liver; pigs with thymidine kinase suicide gene, average): 25 % of the total liver
liver engrafted with human hepatocytes (fetal pig liver; pigs without suicide transgene): less than 2 % of the total liver
engraftment with human hepatocytes versus controls not treated [7]: substantially greater engraftment
hepatocyte death [8]: Most of the hepatocytes then died off
